The results in this text go back to ChEMBL document CHEMBL1146872, “Synthesis, biochemical evaluation and rationalisation of the inhibitory activity of a series of 4-hydroxyphenyl ketones as potential inhibitors of 17beta-hydroxysteroid dehydrogenase type 3 (17beta-HSD3)” (Bioorg Med Chem Lett, 2006).

Assay [1] concerns 17beta-HSD3 (Rattus norvegicus). Description: Inhibition of 17beta-HSD3 at 100 uM.
The target in assay [2] is 17beta-HSD3 (Rattus norvegicus). Description: Inhibition of 17beta-HSD3.

For `CCCCCCCCCCCC(=O)c1ccc(O)cc1`, in assay [1], the inhibition is 78.9%. Further, the midpoint of inhibition in assay [2], the IC50, lay at 7.55 µM.

For the compound `CCCCCCCCCC(=O)c1ccc(O)cc1`, the inhibition in assay [1] amounted to 81.4%. In assay [2], this compound yielded an IC50 of 4.97 µM.

With `CCCCCCCC(=O)c1ccc(O)cc1`, the inhibition in assay [1] stood at 82.6%. Besides, the half-maximal inhibitory concentration (IC50) in assay [2] turned out to be 6.52 µM.

For `CCCCCC(=O)c1ccc(O)cc1`, the inhibition in assay [1] amounted to 76.4%. Half-maximal inhibition in assay [2] (IC50) was put at 18 µM.

For the compound `CCCCCCC(=O)c1ccc(O)cc1`, the inhibition in assay [1] stood at 80.3%. In assay [2], this compound had an IC50 of 7.84 µM.

One may read the inhibition as the drop in the measured response relative to a control, in per cent. The IC50 is the midpoint of a concentration-inhibition curve.
